In patent US20250082914A1 (priority 2022, published 2025):

Assays:
[1] = In vitro drug release, USP device type II, SGF then SIF; assay type: physicochemical; settings: after switch from SGF pH 1.2 (30 min) to SIF pH 6.8; 37° C., 100 rpm; 8 mm device, 20 mg desmopressin, 40 mg PVP, enteric capsule
Protocol: The temperature was set at 37° C., and the rotating speed was at 100 rpm. Aliquots of 1 mL were sampled at the predetermined time points and the sampled volume was replaced with fresh SGF or SIF buffer. Quantification was carried by HPLC (VWR Hitachi Chromaster system with 5160 pump, 5260 autosampler, 5310 column oven and 5430 diode array detector, VWR International, Radnor, PA) with the UV wavelength set at 280 nm. […] At the intestinal pH, desmopressin started being released when the solvent was switched to SIF and was completely released within about 20 minutes. […] The drug release kinetics is also controlled with the polymeric excipient.

[2] = in the presence of permeation enhancers; cited from earlier work

Molecule | time to complete release of desmopressin [1] [min] | oral bioavailability [2]
NC(=O)CC[C@@H]1NC(=O)[C@H](Cc2ccccc2)NC(=O)[C@H](Cc2ccc(O)cc2)NC(=O)CCSSC[C@@H](C(=O)N2CCC[C@H]2C(=O)N[C@H](CCCN=C(N)N)C(=O)NCC(N)=O)NC(=O)[C@H](CC(N)=O)NC1=O [desmopressin] | ≤ 20 | –
C[C@@H](O)[C@@H]1NC(=O)[C@H](CCCCN)NC(=O)[C@@H](Cc2c[nH]c3ccccc23)NC(=O)[C@H](Cc2ccccc2)NC(=O)[C@@H](NC(=O)[C@H](N)Cc2ccccc2)CSSC[C@@H](C(=O)N[C@H](CO)[C@@H](C)O)NC1=O [octreotride] | – | 0.5-1%
semaglutide | – | ~1%
